The text below walks through data of patent US20080045596A1, “Ep2 Receptor Agonists” (priority 2003, published 2008).

One test has as its system human myometrium. Kind of test: Electrical field stimulation (EFS) induced contractions of human myometrial strips. The method, then: The following describes an in vitro functional assay, using human myometrial smooth muscle, to determine the affinity of the test compounds at the EP2 receptor in human tissues.
Sections of human myometrium were prepared from samples of surgically removed uterus longitudinal myometrial muscle strips (2 mm wide by 10 mm long) were then cut and suspended between stainless steel hooks in organ chambers containing oxygenated (95% O2/5% CO2) Krebs solution at 37° C. The composition of the Krebs solution was as follows: NaCl (118.2 mM), KCl (4.69 mM), MgSO4.7H2O (1.18 mM), KH2PO4 (1.19 mM), glucose (11.1 mM), NaHCO3 (25.0 mM), CaCl2.6H2O (2.5 mM), indomethacin 3×10^−6M.
Tissues were placed under a tension equivalent to 25 mN and left overnight at room temperature. The following day the tissues were maintained at 37° C., washed and placed under a tension of 15 mN then allowed to equilibrate for a period of at least 30 minutes. Responses were recorded using isometric transducers coupled to an Apple Macintosh computer via a MacLab interface. After 60 minutes, the muscle sections of the human myometrium were stimulated electrically (15 ms pulse width, for 10 s every 100 s at 15V and 0.5-40 Hz) using parallel platinum wire electrodes and a Multistim D330 pulse stimulator. Upon electrical stimulation, the strips of human myometrial smooth muscle responded with a rapid contraction. Once the response to electrical stimulation had stabilised (stimulated responses differed by no more than 10%), the strips were exposed to increasing concentrations of test compounds (1×10^−7 to 1×10^−4M, incubated for at least 15 minutes at each concentration). At the end of the experiment, application of sodium nitroprusside (SNP, a nitric oxide donor that causes smooth muscle relaxation) (1×10^−4M) was used to produce a standard relaxatory response. To determine the affinity of the compounds, the concentration of test compound required to produce half-maximal effects (EC50) was calculated, as was the maximum response (calculated as a percentage of the standard response produced with SNP).

Test [1] concerns interferon gamma release by lymphocytes. Nature of the test: Lymphocyte assay: interferon gamma release. In kind it is cell-based, human. To be noted: FIG. 11, two donors. From the text:
Lymphocytes are mononuclear leukocytes, which participate in specific immune responses to foreign antigens and in the manifestation of auto-immune diseases. T lymphocytes produce IL-2, a key factor for lymphocyte activation and proliferation, in response to antigen stimulation via the CD3-T cell receptor complex and the pathway involved in this response is the NF-AT. […] A lymphocyte assay was designed to model this response and to determine the effect of test compound on IL-2 production by anti-CD3-stimulated T cells isolated from peripheral blood. This assay uses a sub-optimal dose of an anti-CD3 monoclonal antibody (OKT3, 25 ng/ml) immobilised to a 96-well plate to stimulate a T cell response. The level of IL-2 released into the cell culture supernatants was quantified using a standard sandwich ELISA. Similarly, other cytokines such as TNFα and IFN-γ can also be measured in the same assay. […]
Lymphocytes were then seeded to a 96-well plate pre-coated with anti-CD3 monoclonal antibody (OKT3) at 25 ng/ml and immediately, the test compounds (Peak 1, mixture 1 acid; Peak 1, mixture 2 acid; AH-13205 racemate; PGE2) in appropriate dilutions were added to corresponding wells according to the experimental design. […] The levels of IFN-γ was assessed by using the ProteoPlex 16 well human cytokine array assay kit according to the manufacturer's instruction.

A further test deals with T1, human EP4 receptor (Homo sapiens, UniProt P35408).
T1 construct: expressed in transfected cells
Kind of test: Radioligand ([3H]PGE2) competition displacement binding, human EP4 receptor membranes. Particulars: human EP4, [3H]PGE2 displacement. As to the method: (§1) Membranes were prepared from cells stably transfected with human EP receptor cDNA. In brief, cells were cultured to confluency, scraped from culture flasks, and centrifuged (800 g, 8 minutes, 4° C.). Cells were twice washed in ice cold homogenisation buffer containing 10 mM Tris-HCl, 1 mM EDTA.2Na, 250 mM sucrose, 1 mM PMSF, 0.3 mM indomethacin, pH 7.4, homogenised and re-centrifuged as before. The supernatant was stored on ice and pellets re-homogenised and re-spun. Supernatants were pooled and centrifuged at 40000 g, 10 minutes, 4° C. Resultant membrane pellets were stored at −80° C. until use.
(§2) For assay, membranes expressing human EP4, EP3, EP2 or EP1 receptors were incubated in Millipore (MHVBN45) plates containing assay buffer, radiolabelled [^3H]PGE2 and 0.1 to 10 000 nM concentrations of compounds. Incubations were performed at suitable temperatures and for suitable times to allow equilibrium to be reached. Non-specific binding was determined in the presence of 10 uM PGE2. Bound and free radiolabel was separated by vacuum manifold filtration using appropriate wash buffers, and bound radiolabel was determined by scintillation counting. Constituents of each of the buffers are included in table 4 below.
(§3) The affinity or pKi of each compound for each receptor was calculated from the concentration causing 50% radioligand displacement (IC50) using the Cheng-Prusoff equation: […]
(§4) This approach follows that set out in Kenakin, T. P., Pharmacologic analysis of drug receptor interaction. Raven Press, New York, 2nd edition.

Test [2] concerns the target T2, human EP2 receptor (Homo sapiens, UniProt P43116).
T2 construct: expressed in transfected cells; host or cells: HEK cells (HEK-EP2)
Kind of test: Radioligand ([3H]PGE2) competition displacement binding, human EP2 receptor membranes. To be noted: for pKi EP2: human EP2, [3H]PGE2 displacement, Cheng-Prusoff, mean of 4 experiments. The method, then: as §1, §2, §3, §4

In test [3] the target is T2, human EP2 receptor. Nature of the test: cAMP production in HEK cells stably expressing the human EP2 receptor. In kind it is cell-based. To be noted: 15 min stimulation, 4 experiments, logarithm of EC50. The method, then: The following describes an in vitro assay to determine the effect of compounds on cyclase production, that is, to determine their functional efficacy at the EP2 receptor.
HEK cells stably expressing the human EP2 receptor were used for these assays. HEK-EP2 cells were cultured in 96-well, poly-L-lysine coated plates at a density of 50,000 cells/well, and grown to confluence in humidified […]/5% CO2 at 37° C. Culture medium was DMEM supplemented with 10% foetal bovine serum, 100 U/ml penicillin, […] streptomycin, 2.5 μg/ml fungizone, 2 mM glutamine, 250 μg/ml geneticin and 200 μg/ml zeocin.
On reaching confluence, culture media was rinsed off using DMEM with no additions, before 175 μl assay buffer (DMEM containing 1 mM 3-isobutyl-1-methylxanthine and 3 μM indomethacin) was added to each well. This was allowed to incubate for 1 hr before the cells were stimulated with the test compounds (in triplicate) at final concentrations of 10^−9M to 10^−5M for 15 minutes. The assay was terminated by the addition of 25 μl 1M hydrochloric acid. Plates were then frozen for a minimum of 12 hours or until required for radioligand displacement assay.
Plates were thawed quickly at 37° C., and neutralised with 25 μl 1M sodium hydroxide. 30 μl of supernatant was transferred to 96-well Millipore (MAFNOB) plates coated with 0.1% Polyethylenimine. These supernatants were diluted by addition of 90 μl cAMP assay buffer (50 mM Tris, 5 mM EDTA, pH 7.0). A cAMP standard curve (10^−11M to 10^−5M) was constructed. 15 μl of 3′:5′-cAMP-dependent protein kinase (final concentration 8 μg/well), and 15 μl [^3H]-cAMP (final concentration 2 nM/well) were added to each well.
Plates were incubated on ice for 2 hours, before bound and free radiolabel were separated by vacuum filtration harvesting on the Millipore manifold, using ice cold water as the termination buffer. […]
Radioactivity was determined using the Microbeta Trilux scintillation counter. cAMP accumulation was determined from the standard curve, and the values plotted as pmoles cAMP/well.
In general terms: cAMP levels reflect the balance of adenylyl cyclase and phosphodiesterase activity.

The next test concerns the target T3, human EP3 receptor (Homo sapiens, UniProt P43115).
T3 construct: expressed in transfected cells
T3 sequence (P43115 1-390): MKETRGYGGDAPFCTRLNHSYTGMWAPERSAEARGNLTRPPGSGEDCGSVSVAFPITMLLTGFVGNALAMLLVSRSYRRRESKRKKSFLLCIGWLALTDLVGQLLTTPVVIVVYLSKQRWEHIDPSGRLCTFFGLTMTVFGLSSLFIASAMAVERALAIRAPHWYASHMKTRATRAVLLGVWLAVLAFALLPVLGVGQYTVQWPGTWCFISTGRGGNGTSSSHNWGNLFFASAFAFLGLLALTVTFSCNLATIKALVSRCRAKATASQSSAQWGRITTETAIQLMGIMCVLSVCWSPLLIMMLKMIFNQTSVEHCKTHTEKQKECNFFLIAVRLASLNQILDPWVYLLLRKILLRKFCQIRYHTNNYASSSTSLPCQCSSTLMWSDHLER
Kind of test: Radioligand ([3H]PGE2) competition displacement binding, human EP3 receptor membranes. To be noted: human EP3, [3H]PGE2 displacement. The method, then:
as §1, §2, §3, §4

Test [4] has as its system TNFα production by LPS-stimulated monocytes. Kind of test: Monocyte assay: LPS-induced TNFα secretion. In kind it is cell-based, human. To be noted: Table 11/FIG. 14, mean of three donors, LPS 100 ng/ml, 24 h. From the text: Monocytes are peripheral mononuclear phagocytes that participate in inflammatory responses. TNFα production by monocytes plays an important role in inflammatory responses and can cause considerable tissue damage if the level remained unchecked. Inhibition of TNFα secretion by activated monocytes may provide an attractive therapy for the treatment of inflammatory conditions.
A 96 well in vitro assay was established to determine the effects of test compounds on LPS-induced TNFα secretion by human peripheral blood monocytes. The level of TNFα in assay supernatants was quantified using a standard sandwich ELISA.
Human peripheral blood mononuclear cells from healthy volunteers were isolated from whole blood by Ficoll-Hypaque density centrifugation and adherence to plastic. The non-adherent lymphocyte fraction was used to set up the lymphocyte assay and the adherent monocytes were then recovered by scraping and subsequently used in the monocyte assay.
For the monocyte assay, the cells were plated onto 96-well plates and pre-treated for 1 hour at 37° C./5% CO2 with the test compound (Peak 1, mixture 1 acid; Peak 1, mixture 2 acid; AH-13205 racemate), followed by the addition of LPS (100 ng/ml) to initiate the reaction. The plate was incubated for 24 hours and supernatants were recovered for the measurement of TNFα production by ELISA.

What is called EC50 is the concentration at which the effect is half-maximal.

Read-outs that look alike come from different tables or passages of the source.

T1 sequence (P35408 whole entry): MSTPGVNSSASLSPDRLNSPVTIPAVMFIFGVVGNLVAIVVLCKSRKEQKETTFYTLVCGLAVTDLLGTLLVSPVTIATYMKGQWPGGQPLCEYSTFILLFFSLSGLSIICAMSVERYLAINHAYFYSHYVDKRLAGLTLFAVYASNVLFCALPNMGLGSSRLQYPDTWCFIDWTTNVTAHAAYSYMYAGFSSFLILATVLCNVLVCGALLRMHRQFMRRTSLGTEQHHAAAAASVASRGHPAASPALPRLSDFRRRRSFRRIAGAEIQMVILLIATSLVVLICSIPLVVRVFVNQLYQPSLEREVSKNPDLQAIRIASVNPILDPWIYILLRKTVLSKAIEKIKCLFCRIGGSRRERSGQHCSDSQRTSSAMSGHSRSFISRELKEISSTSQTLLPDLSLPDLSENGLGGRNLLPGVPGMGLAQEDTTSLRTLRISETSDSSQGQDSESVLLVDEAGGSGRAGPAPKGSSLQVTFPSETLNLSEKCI
T2 sequence (P43116 whole entry): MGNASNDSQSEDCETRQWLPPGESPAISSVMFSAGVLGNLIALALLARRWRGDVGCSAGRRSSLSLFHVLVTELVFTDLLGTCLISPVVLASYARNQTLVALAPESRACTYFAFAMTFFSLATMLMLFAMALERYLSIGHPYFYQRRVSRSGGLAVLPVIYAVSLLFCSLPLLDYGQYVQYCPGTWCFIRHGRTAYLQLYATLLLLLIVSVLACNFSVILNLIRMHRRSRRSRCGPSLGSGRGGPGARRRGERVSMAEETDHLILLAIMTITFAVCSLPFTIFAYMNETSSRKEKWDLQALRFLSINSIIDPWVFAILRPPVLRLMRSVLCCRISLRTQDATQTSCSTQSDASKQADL

Take `CCCCCC(O)c1ccc(C2CCC(=O)C2CCCCCCC(=O)O)cc1` (racemic) [AH13205, (±)-trans-2-[4-(1-hydroxyhexyl)phenyl]-5-oxo-cyclopentaneheptanoic acid, reference compound]: the “effect on EFS-evoked contractions (words)” value (“effect … (words)” below) in the test on human myometrium is listed as “concentration-dependent inhibition”; in the test on human myometrium (listed as AH-13205), “inhibit electrically-induced contractions”.

As for `CCCCC[C@H](O)c1ccc([C@H]2CCC(=O)[C@@H]2CCCCCCC(=O)O)cc1` (single isomer, unassigned) [Peak 1, Mixture 1 acid], in the test on human myometrium, the “effect … (words)” value is on record as “concentration-dependent inhibition”. For the same compound, in test [1], the “effect on interferon gamma release” value is given as “concentration-dependently inhibit interferon gamma release”.

`CCCCC[C@@H](O)c1ccc([C@H]2CCC(=O)[C@@H]2CCCCCCC(=O)O)cc1` (single isomer, unassigned; peak 1) [Peak 1, Mixture 2 acid]: the “pKi EP4” value on human EP4 receptor stood at 5.1. Moreover, in the test with human myometrium, the “effect … (words)” value is “concentration-dependent inhibition” and the “maximum inhibition of EFS-induced contractions” value is on record as 57±2%. Also, the “pEC50, inhibition of EFS-evoked response” value in the test on human myometrium (1×10^-7 to 1×10^-4 M) amounted to 5.3±0.1. In addition, on human EP2 receptor [2] (from Table 5 pKi values, EP2 versus other EP receptors), the “selectivity for EP2 among the stereoisomers” value is “most selective”. In addition, the “pKi EP2” value on human EP2 receptor [2] turned out to be 6.9. Moreover, the “Mean Log (EC50), cAMP production” value on human EP2 receptor [3] was −7.25. Besides, the “pKi EP3” value at human EP3 receptor was 4.8. Besides, the “Mean Log (EC50), inhibition of TNFα production by LPS-stimulated monocytes” value in test [4] (logarithm of EC50) is −5.172. Besides, the EC50 in test [4] (read-out: Mean EC50, inhibition of TNFα production by LPS-stimulated monocytes) was 6.73 µM.

Consider `CCCCC[C@H](O)c1ccc([C@@H]2CCC(=O)[C@H]2CCCCCCC(=O)O)cc1` (single isomer, unassigned; peak 2) [Peak 2, Mixture 1 acid], for which the “pKi EP4” value at human EP4 receptor turned out to be 4.5. Also, the “pKi EP2” value at human EP2 receptor [2] is 5.8. Moreover, the “Mean Log (EC50), cAMP production” value at human EP2 receptor [3] is recorded as −6.49. In addition, the “pKi EP3” value at human EP3 receptor was 4.8.

Take `CCCCC[C@@H](O)c1ccc([C@@H]2CCC(=O)[C@H]2CCCCCCC(=O)O)cc1` (single isomer, unassigned; peak 2) [Peak 2, Mixture 2 acid]: the “pKi EP4” value at human EP4 receptor is 4.8. At human EP2 receptor [2], the “pKi EP2” value came out at 6.3. Moreover, the “Mean Log (EC50), cAMP production” value on human EP2 receptor [3] is reported as −6.39. Besides, the “pKi EP3” value at human EP3 receptor worked out at 4.7.

In the case of `CC(C)(C)NCC(O)c1cc(O)cc(O)c1` (centres unmarked) [terbutaline, reference compound], the “effect … (words)” value with human myometrium was “no significant inhibitory effect”.
